The target of assay [1] is T1, SaFtsZ (Staphylococcus aureus, UniProt P0A031).
T1 construct: purchased Cytoskeleton, Inc. FTZ02
T1 sequence (P0A031 1-390): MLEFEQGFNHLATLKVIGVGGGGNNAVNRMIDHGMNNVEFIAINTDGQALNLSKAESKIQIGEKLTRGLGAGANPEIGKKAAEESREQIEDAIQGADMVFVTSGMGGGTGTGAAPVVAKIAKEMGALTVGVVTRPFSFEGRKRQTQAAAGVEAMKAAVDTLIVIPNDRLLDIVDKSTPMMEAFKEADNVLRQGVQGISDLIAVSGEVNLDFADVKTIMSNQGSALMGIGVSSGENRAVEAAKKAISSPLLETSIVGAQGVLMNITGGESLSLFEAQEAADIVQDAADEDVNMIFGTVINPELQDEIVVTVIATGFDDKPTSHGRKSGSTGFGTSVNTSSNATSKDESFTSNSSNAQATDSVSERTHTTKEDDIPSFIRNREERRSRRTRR
Description: Surface plasmon resonance analysis. Particulars: SPR, immobilized SaFtsZ, 25°C, steady-state. It is filed as binding, S. aureus. How it is done:
SPR analysis was performed using a Biacore X100 system (Cytiva, USA) equipped with a CM5 sensor chip at 25°C. SaFtsZ protein was immobilized onto the chip surface via standard amine coupling. Briefly, flow cells 1 (Fc1) and 2 (Fc2) were activated with a 1:1 mixture of 0.4 M EDC and 0.1 M NHS for 7 min. The SaFtsZ protein was diluted to 40 μg/mL in 0.1 M sodium acetate buffer (pH 4.0) and immobilized onto Fc2. The response units (RU) reaching an immobilization level of approximately 4693.2. Unreacted sites in both flow cells were blocked with ethanolamine for 7 min. Subsequently, analyte solutions containing test compounds at varying concentrations were injected over both flow cells, and binding responses were monitored in real time. Data analysis was performed using Biacore Evaluation Software v2.0.2.
We first performed SPR spectroscopy to experimentally measure the binding affinities of AA, MA, and UA for immobilized SaFtsZ protein.
In general terms: SPR reads the build-up and loss of mass on a sensor chip optically.

The subject of assay [2] is MRSA-4. Put plainly: MIC, broth microdilution (CLSI). The class given is cell-based, Methicillin-resistant S. aureus. Particulars: Staphylococcus aureus. From the text:
Staphylococcus aureus ATCC25923 and Escherichia coli ATCC25922 were obtained from the American Type Culture Collection (ATCC, Manassas, VA, USA). The Methicillin-resistant S. aureus (MRSA) clinical isolate MRSA-4, previously confirmed as mecA-positive and characterized for its antibiotic resistance profile ([Sun et al., 2023]), was used in this study. Staphylococcus epidermidis (GDMCC 1.143), Enterococcus faecalis (GDMCC 1.164), and Salmonella enterica subsp. enterica (GDMCC 1.1114) were obtained from the Guangdong Microbial Culture Collection Center (GDMCC, Guangzhou, China). The Pseudomonas aeruginosa PA14 strain was kindly provided by Professor Min Wu (Southwest Medical University, China). All bacterial strains were routinely cultured in Mueller-Hinton broth (MHB) or Luria-Bertani (LB) broth medium at 37°C with shaking at 200 rpm. Vancomycin was purchased from Solarbio Science & Technology Co., Ltd. (Beijing, China), and oxacillin was obtained from Taiji Group Hengsheng Pharmaceutical Co., Ltd. (Chengdu, China). The polyclonal rabbit primary anti-body to FtsZ was purchased from Abcam PLC (Cambridge, UK). Alexa488-conjugated goat anti-rabbit IgG was purchased from ZSGB-BIO Biotechnology (Beijing, China). DAPI staining solution was purchased from Beyotime Biotechnology (Shanghai, China).
The minimum inhibitory concentrations (MICs) of the test compounds (AA, MA, and UA) were determined using the standard broth microdilution method in accordance with the Clinical and Laboratory Standards Institute (CLSI) guidelines ([Humphries et al., 2021]). Bacteria were cultured in MHB or LB broth at 37°C with shaking (200 rpm) to the logarithmic phase, then diluted to a final density of 1 × 10^6 CFU/mL. Test compounds (dissolved in DMSO) and positive controls (vancomycin and oxacillin) were diluted in MHB and serially twofold diluted in 96-well plates. Each well was inoculated with 100 μL of bacterial suspension (1 × 10^6 CFU/mL), yielding a final bacterial density of 5 × 10^5 CFU/mL and a total volume of 200 μL. The final concentrations tested were 128 to 1 μg/mL for AA, MA, and UA; 16 to 0.5 μg/mL for vancomycin; and 64 to 0.0625 μg/mL for oxacillin. DMSO was used as a solvent control. Plates were incubated statically at 37°C for 18–24 h. After incubation, the OD600 was measured using a microplate reader (SpectraMax i3x, Molecular Devices, CA, USA). The MIC was defined as the lowest compound concentration that caused ≥ 90% inhibition of bacterial growth compared to the drug-free growth control. All tests were performed in three independent biological replicates.
Following the isolation and identification of AA, MA, and UA from ECPL, we evaluated their antibacterial activity and spectrum. The MICs of the compounds were determined against MRSA-4, S. aureus ATCC25923, S. epidermidis, and E. faecalis (Gram-positive), as well as P. aeruginosa PA14, E. coli ATCC25922, and S. enterica subsp. Enterica (Gram-negative) using the standard broth microdilution method in accordance with CLSI guidelines ([Humphries et al., 2021]).
A general note: Dilution methods test growth across graded concentrations, often in twofold steps.

Assay [3] concerns MRSA-4. Put plainly: TEM analysis of septum formation. The class given is cell-based, Methicillin-resistant S. aureus. As to conditions: 1 × MIC, 4 h. The protocol: MRSA-4 was cultured in MHB to mid-log phase as described above. The cultures were then treated with AA, MA, or UA (at 1 × MIC) or with an equal volume of PBS (negative control) for 4 h at 37°C. After treatment, bacterial suspensions were collected by centrifugation at 13,000 × g for 3 min, and the resulting pellets were washed with PBS. Pellets were fixed in 2.5% glutaraldehyde prepared in 0.1 M cacodylate buffer (pH 7.2). Following fixation, samples were dehydrated in a graded ethanol series (30 to 100%), with 100% ethanol replaced three times. Samples were infiltrated with acetone/Epon-812 resin mixtures at ratios of 3:1, 1:1, and 1:3, then embedded in pure Epon-812 resin. Ultrathin sections (60–90 nm) were cut and placed on copper grids. The sections were stained with saturated uranyl acetate for 10–15 min, followed by lead citrate for 1–2 min. Structural and morphological changes in the bacterial cells were observed using a JEOL JEM-1400FLASH transmission electron microscope (JEOL, Japan).
We first evaluated the impact of AA, MA, and UA on septum formation in MRSA-4 cells using TEM. MRSA-4 cultures were treated with AA, MA, or UA at 1 × MIC for 4 h, with PBS-treated cells serving as the control. […] These abnormalities imply that AA, MA, and UA disrupt the septum formation process, which is essential for successful cell division.

The mark [4] stands for this setting: MRSA-4, ≥ 90% growth inhibition, 18–24 h, read-out: MIC.
Setting [5] is: read-out: equilibrium dissociation constant (Kd).

Each structure is given as a SMILES string. Converted amounts (≈) assume the structure as drawn. “And” between values parts separate entries of the source, which are not always exact repeats. Equal values may be shown once. Read-outs that look alike come from different tables or passages of the source.

One may read the Kd as a measure of binding affinity in units of concentration. A word on the MIC: it is the lowest concentration that inhibits growth of the organism. `C[C@H]1[C@H](C)CC[C@]2(C(=O)O)CC[C@]3(C)C(=CC[C@@H]4[C@@]5(C)C[C@@H](O)[C@H](O)[C@@](C)(CO)[C@@H]5CC[C@]43C)[C@H]12` [AA, asiatic acid] came in with a Kd in assay [1] (equilibrium dissociation constant (Kd)) of 2.4 µM. Moreover, the MIC in assay [2] (setting [4]) is 32 µg/mL (≈ 65.5 µM). Besides, the “septum formation (TEM)” value in assay [3] is recorded as “incomplete, mislocalized, or absent septa”.

Consider `CC1(C)CC[C@]2(C(=O)O)CC[C@]3(C)C(=CC[C@@H]4[C@@]5(C)C[C@@H](O)[C@H](O)C(C)(C)[C@@H]5CC[C@]43C)[C@@H]2C1` [MA, maslinic acid], for which the Kd in assay [1] (setting [5]) was 9.8 µM and 9.76 µM. This molecule returned a minimum inhibitory concentration (MIC) in assay [2] (MRSA) of 32 µg/mL (≈ 67.7 µM). Moreover, in assay [3], the “septum formation (TEM)” value is given as “incomplete, mislocalized, or absent septa”.

For the molecule `C[C@H]1[C@H](C)CC[C@]2(C(=O)O)CC[C@]3(C)C(=CC[C@@H]4[C@@]5(C)CC[C@H](O)C(C)(C)[C@@H]5CC[C@]43C)[C@H]12` [UA, ursolic acid], the Kd in assay [1] (setting [5]) is 0.7 µM and 0.663 µM. Further, in assay [2] (setting [4]), the MIC was found to be 8 µg/mL (≈ 17.5 µM). For the same molecule, the “septum formation (TEM)” value in assay [3] was “incomplete, mislocalized, or absent septa”.

For the origin of these results see publication PMC12213745, “Compounds from Cyclocarya paliurus leaves inhibit binary division of methicillin-resistant Staphylococcus aureus by disrupting FtsZ dynamic” (Frontiers in Microbiology, 2025).
